Here are results for one compound from patent publication US20200000969A1, “HYALURONIC ACID COMPOSITIONS INCLUDING MEPIVACAINE” (LABORATOIRES VIVACY, priority 2013, published 2020).

For data set [1] the following is noted: cited from earlier work.
Data set [2] is described as follows: Release kinetics of local anesthetic from hyaluronic acid gel by dialysis, UV-visible spectrophotometry. The format is physicochemical. The settings on record: HA 3×10^6 Da, X=0.12, 20 mg/g; for mass percentage of local anesthetic in the hyaluronic acid gel: initial 3 mg/g, 37° C., physiological saline.
Procedure: The release kinetics were, however, studied at 37° C. in physiological saline medium. Monitoring by UV-visible spectrophotometry is performed to assay the local anesthetic present in the gel.

One may read the pKa as the pH at which an ionisable group is half protonated.

SMILES strings stand for the structures.

With `Cc1cccc(C)c1NC(=O)C1CCCCN1C` (stereo not drawn) [Mepivacaine, mepivacaine], the pKa in data set [1] is listed as 7.7. The “release kinetics from the hyaluronic acid gel (FIG. 1), lidocaine versus mepivacaine” value in data set [2] (3 mg/g, dialysis at 37° C. in physiological saline) is “comparable”. For the same compound, the “mass percentage of local anesthetic in the hyaluronic acid gel” value came to 0.290 mass % in data set [2] (dialysis time 0 h); 0.133 mass % in data set [2] (dialysis time 1.5 h); 0.100 mass % in data set [2] (dialysis time 5 h); 0.098 mass % in data set [2] (dialysis time 7 h); 0.086 mass % in data set [2] (dialysis time 23 h); 0.077 mass % in data set [2] (dialysis time 48 h). Further, the “mass percentage of local anesthetic in the hyaluronic acid gel” value in data set [2] (dialysis time 72 h) came out at 0.075 mass %.
